Values of other authors, collected in US11083779B2, “Method for treatment of encephalopathy” (priority 2018, dated 2021).

Tested on: toxic encephalopathy
Conditions: PIRACETAM i.v. 10-15 minutes before transcranial electrical stimulation, two steps (77 Hz, 10 Hz)

NC(=O)CN1CCCC1=O [PIRACETAM®, PIRACETAM]
patient symptoms after treatment: decrease of headaches, giddiness and the improvement of sleep
